Results reported in ChEMBL document CHEMBL3091360, “Homosecoiridoid alkaloids with amino acid units from the flower buds of Lonicera japonica” (J Nat Prod, 2013).
pIC50: −log10 of the molar value. Activity calls are given as the source filed them. The calls are words filed in the database; no cut-off is given here.

What was measured:
[1] = system: MCF7; assay: Cytotoxicity against human MCF7 cells at 10 uM after 96 hrs by MTT assay; assay type: functional, cell-based
[2] = system: KETR3; assay: Cytotoxicity against human Ketr3 cells at 10 uM after 96 hrs by MTT assay; assay type: functional, cell-based
[3] = system: A549; assay: Cytotoxicity against human A549 cells at 10 uM after 96 hrs by MTT assay; assay type: functional, cell-based
[4] = system: Influenza A virus H3N2; assay: microbe, parasite or virus in culture; conditions: Hanfang/359/95
[5] = system: Human immunodeficiency virus 1; assay: Antiviral activity against HIV1 infected in human 293T cells expressing VSV-G assessed as inhibition of viral p24 production at 10 uM after 48 hrs by ELISA; assay type: functional, organism-based
[6] = system: BGC-823; assay: Cytotoxicity against human BGC823 cells at 10 uM after 96 hrs by MTT assay; assay type: functional, cell-based
[7] = system: HCT-8; assay: Cytotoxicity against human HCT8 cells at 10 uM after 96 hrs by MTT assay; assay type: functional, cell-based
[8] = system: Bel-7402; assay: Cytotoxicity against human Bel7402 cells at 10 uM after 96 hrs by MTT assay; assay type: functional, cell-based
[9] = Antiinflammatory activity in rat polymorphonuclear leukocytes assessed as inhibition of PAF-induced release of glucuronidase at 10 uM; assay type: functional
[10] = system: Coxsackievirus B3; assay: Antiviral activity against Coxsackie virus B3 assessed as inhibition of viral replication; assay type: functional, organism-based; conditions: Enterovirus B

Structure (SMILES)	Activity [1]	Activity [2]	Activity [3]	pIC50 [4]	inhibition [5]	Activity [6]	Activity [7]	Activity [8]	inhibition at 10 µM [9] [%]	pIC50 [10]
C=C[C@H]1[C@H](O[C@@H]2O[C@H](CO)[C@@H](O)[C@H](O)[C@H]2O)OC=C(C(=O)[O-])[C@H]1/C=C/c1cc(C(=O)O)c[n+]([C@@H](CC(C)C)C(=O)O)c1	inactive	inactive	inactive	4.99	inactive	inactive	inactive	inactive	< 30	
O=C(/C=C/c1ccc(O)c(O)c1)O[C@@H]1[C@H](O)C[C@@](O)(C(=O)O)C[C@H]1OC(=O)/C=C/c1ccc(O)c(O)c1	inactive	inactive	inactive	4.99	inactive	inactive	inactive	inactive	< 30	
C=C[C@H]1[C@H](O[C@@H]2O[C@H](CO)[C@@H](O)[C@H](O)[C@H]2O)OC=C(C(=O)O)[C@H]1/C=C/c1ccc[n+]([C@@H](C)C(=O)[O-])c1	inactive	inactive	inactive	4.94	inactive	inactive	inactive	inactive	63.2	
C=C[C@H]1[C@H](O[C@@H]2O[C@H](CO)[C@@H](O)[C@H](O)[C@H]2O)OC=C(C(=O)O)[C@H]1/C=C/c1ccc[n+]([C@H](Cc2ccccc2)C(=O)[O-])c1	inactive	inactive	inactive	5.17	inactive	inactive	inactive	inactive	53.8	4.91
CCOC(=O)C1=C[C@@H](OC(CC)CC)[C@H](NC(C)=O)[C@@H](N)C1 [OSELTAMIVIR]				5.89						
Cc1cc(CCCOc2c(C)cc(-c3noc(C(F)(F)F)n3)cc2C)on1 [PLECONARIL]										6.52
COC[C@H]1O[C@@H](n2cnc3c(N)ncnc32)[C@H](O)[C@@H]1O	inactive	inactive	inactive	5.47	inactive	inactive	inactive	inactive	< 30	
O=C(/C=C/c1ccc(O)c(O)c1)O[C@@H]1C[C@](O)(C(=O)O)C[C@@H](OC(=O)/C=C/c2ccc(O)c(O)c2)[C@H]1O	inactive	inactive	inactive	5.31	inactive	inactive	inactive	inactive	< 30	
C=C[C@H]1[C@H](O[C@@H]2O[C@H](CO)[C@@H](O)[C@H](O)[C@H]2O)OC=C(C(=O)O)[C@H]1/C=C/c1cc(C(=O)O)c[n+]([C@H](Cc2ccccc2)C(=O)[O-])c1	inactive	inactive	inactive	5.09	inactive	inactive	inactive	inactive	< 30	
C=C[C@H]1[C@H](O[C@@H]2O[C@H](CO)[C@@H](O)[C@H](O)[C@H]2O)OC=C(C(=O)[O-])[C@H]1/C=C/c1cc(C(=O)O)c[n+]([C@H](C(=O)O)[C@@H](C)CC)c1	inactive	inactive	inactive		inactive	inactive	inactive	inactive	< 30	
C[C@@H]1C(=O)O[C@H]2[C@H](O)[C@@]34[C@H]5C[C@@H](C(C)(C)C)[C@]36[C@@H](OC(=O)[C@@H]6O)O[C@@]4(C(=O)O5)[C@@]12O [GINKOLIDE B]	inactive	inactive	inactive		inactive	inactive	inactive	inactive	78	
O=C(O)/C=C/c1ccc(O)c(O)c1 [CAFFEIC ACID]	inactive	inactive	inactive		inactive	inactive	inactive	inactive	40.3	
C=C[C@H]1[C@H](O[C@@H]2O[C@H](CO)[C@@H](O)[C@H](O)[C@H]2O)OC=C(C(=O)OC)[C@H]1/C=C/CC(=O)OC	inactive	inactive	inactive		inactive	inactive	inactive	inactive	< 30	
